Experimental data: a melting point compilation (Tetko et al.)

Row | SMILES | melting point
1 | O=[N+]([O-])c1cc(Cl)c(Cl)cc1Nc1ccccn1 | 156 °C
2 | CCOC(=O)c1cc2cc([N+](=O)[O-])ccc2[nH]1 | 220 to 225 °C
3 | CC(C(=O)O)C(O)(c1ccccc1)c1ccccc1 (configuration not stated) | 182 °C
4 | COCC(=O)N(c1c(C)cccc1C)N1CCOC1=O | 104 °C
5 | Clc1nc2ccccc2s1 | 31.5 °C
6 | N#CCc1cc(F)cc(F)c1 | 35 °C
7 | O=S(=O)(SS(=O)(=O)c1ccccc1)c1ccccc1 | 129 to 134 °C
8 | CCCCCC(=NO)C(C)=O | 59 °C
9 | COc1ccc(OC)c(CCl)c1 | 69 to 71 °C
10 | CC(=O)c1nn(-c2ccccc2[N+](=O)[O-])c(=NC(=O)c2ccccc2)s1 | 204 °C
11 | O=C(O)C1CC(=O)N(Cc2ccco2)C1 (configuration not stated) | 159 to 160 °C
12 | CCCNC(=O)NCCC | 105 °C
13 | CNc1cnn(-c2cccc(C(F)(F)F)c2)c(=O)c1Cl | 184 °C
14 | COc1ccc2c(OC(C)=O)c(OC)c(OC)c(OC(C)=O)c2c1 | 77.5 °C
15 | CN1CCCC1C(O)(c1ccccc1)c1ccccc1 (configuration not stated) | 66 to 69 °C
16 | Cc1ccc([C@H]2O[C@@H](c3ccc(C)cc3)[C@H](C)C(=O)[C@@H]2C)cc1 | 140 °C
17 | CC1CCC(C(C)C)C(OC(=O)C2=CCC(C(=O)OC3CC(C)CCC3C(C)C)CC2)C1 (configuration not stated) | 125 °C
18 | OC1(Cc2ccccc2)CCNCC1 | 80 to 85 °C
19 | O=c1[nH]cc(Cl)cc1Cl | 180 °C
20 | ON=Cc1ccc(F)cc1 | 83.5 °C
21 | C#CC(O)CCCCC (configuration not stated) | -60 °C
22 | COc1ccc(C=O)cn1 | 46 to 54 °C
23 | CCC(=NNc1cccc(NN=C(CC)C(=O)O)c1)C(=O)O | 190 °C
24 | CC(C(O)c1ccc(O)cc1)N1CCC(Cc2ccccc2)CC1 (configuration not stated) | 114 °C
25 | Cc1cc(C(=O)CCl)c(C)n1-c1ccc(F)cc1 | 80 to 82 °C
26 | Cc1ccccc1C(=O)Cc1ccccc1C(=O)O | 138 °C

Row | SMILES | melting point
27 | O=C(Cl)c1ccc2nonc2c1 | 55 to 58 °C
28 | COC(=O)CCC(C)C1CCC2C3C(OC(C)=O)CC4CC(OC(C)=O)CCC4(C)C3CC(=O)C12C (configuration not stated) | 178 °C
29 | O=C(OCCCl)OCCCl | 8 °C
30 | C#CC1(OC(N)=O)CCCCC1 | 96 °C
31 | CC(C=CC1(O)C(C)=CC(=O)CC1(C)C)=CC(=O)O (configuration not stated) | 160 °C
32 | CC12CCC3C4CCC(=O)C=C4CCC3C1CCC2O (configuration not stated) | 122 °C
33 | COC(=O)[C@H]1OC(c2ccc(OC)c(OC)c2)([C@@H](C)Br)O[C@@H]1C(=O)OC | 97.3 °C
34 | CC(C)c1ccccc1OS(=O)(=O)c1ccc([N+](=O)[O-])cc1 | 98 to 100 °C
35 | CC(C)[Si](C(C)C)(C(C)C)n1ccc2c(Br)cccc21 | 62 to 65 °C
36 | C=CC1CNCCC1CCC(=O)c1ccnc2ccc(OC)cc12 (configuration not stated) | 60 °C
37 | Cc1ccc(C(=O)C(F)(F)C(F)(F)F)cc1 | 4 °C
38 | O=C(c1ccc(O)c(O)c1)c1c(O)cc(O)cc1O | 222 °C
39 | C=C(C)CNc1ccc(C(C)C(=O)O)cc1 (configuration not stated) | 107 °C
40 | NNC(=O)c1ccccc1F | 73 °C
41 | Cn1c(=O)c(C2=NNC(=O)C2)c(O)c2ccccc21 | 287 °C
42 | N#CC1(c2ccc(Cl)cc2)CC1 | 52 to 56 °C
43 | O=C1C=CC(=O)c2cc3ccccc3cc21 | 223 to 226 °C
44 | Cc1cccc(N)c1C(=O)O | 124 °C
45 | COC(=O)c1sc2scc(C)c2c1C | 136 to 139 °C
46 | CCc1c(C(=O)O)c(=O)cnn1-c1ccc(Cl)cc1 | 269 °C
47 | Oc1ccc(C2CCCC2)cc1 | 65 °C
48 | C#CC1(O)CCC2C3CCC4CCCCC4(C)C3CCC21C (configuration not stated) | 155 °C
49 | NS(=O)(=O)c1cc(C(=O)OCOC(=O)c2ccccc2)c(NCc2ccco2)cc1Cl | 179 °C
50 | COc1c(Br)ccc2c1C(=O)C2 | 118 °C
51 | Cn1ccc(-c2ccc(N)cc2)n1 | 125 to 132 °C
52 | Clc1ccc2c(c1)Oc1ccccc1O2 | 88 °C

Row | SMILES | melting point
53 | CC1CCC(C)(COC(=O)c2ccc(N)cc2)C1(C)C (configuration not stated) | 74 °C
54 | O=C(O)CCc1cc(Br)c(O)c(Br)c1 | 108 to 110 °C
55 | CCN(CC)CCOC(=O)C(c1ccccc1)c1ccccc1 | 114 °C
56 | O=Cc1ccccc1N1CCOCC1 | 45 to 46 °C
57 | COc1ccc(N=[N+]([O-])c2ccc(OC)cc2)cc1 | 132 °C
58 | CCOC(=O)c1nn(-c2ccc(C)cc2)c(C)c1C(=O)c1noc(-c2ccc([N+](=O)[O-])cc2)c1S(=O)(=O)c1ccccc1 | 189 °C
59 | O=C(NC(Cc1ccccc1)c1ccccc1)c1cccnc1 (configuration not stated) | 159 °C
60 | Cc1nc(-c2cccc(S(=O)(=O)Cl)c2)no1 | 67 to 69 °C
61 | O=C(O)c1ccc(C(=O)O)c(OC(F)(F)F)c1 | 270 to 272 °C
62 | CC(=O)c1c(C)c[nH]c1C | 138 °C
63 | CCCCCCCCCCCCCCCCCCCCCCCO | 74 to 76 °C
64 | O=[N+]([O-])c1cc([N+](=O)[O-])c(OCCO)cc1OCCO | 136 °C
65 | O=C1N(c2ccccc2)C(=O)[C@]2(Cl)C=C(c3ccccc3)[C@]12Cl | 152 °C
66 | Clc1ccc(C2Nn3c(nnc3-c3ccccc3)S2)cc1 (configuration not stated) | 196 to 198 °C
67 | Cc1ccc(-c2csc(/C(C#N)=N\Nc3ccc(Cl)cc3Cl)n2)cc1 | 211 °C
68 | CC12CCC(=O)C3OC31CC(C1(O)CCC3(C)C(=O)CCC34OC14)C2=O (configuration not stated) | 182 °C
69 | COc1ccc(F)cc1 | -45 °C
70 | Cc1cc([N+](=O)[O-])cc(Cl)c1N | 175 °C
71 | O=C(O)CCc1c(Cl)cccc1Cl | 95 to 97 °C
72 | O=[N+]([O-])c1ccc(OCCBr)cc1 | 64 °C
73 | CCSC(=O)Cl | -60 °C
74 | CCCOC(=O)C1=C(C)NC(C)=C(C(=O)OCCC)C1c1cccc(OC)c1O | 166 to 168 °C
75 | CCCBr | -110 °C
76 | C#CC1(OC(C)=O)CCC2C3CCC4=CC(=NO)CCC4C3CCC21CC (configuration not stated) | 216 °C
77 | NC(=NO)c1ccc2ccccc2c1 | 150 to 151 °C
78 | COc1cc(CC(=O)O)ccc1Br | 104 °C

Row | SMILES | melting point
79 | CC(=O)C(C#N)c1ccccc1[N+](=O)[O-] (configuration not stated) | 72 °C
80 | CC(=O)Nc1ccccc1C(F)(F)F | 96 °C
81 | N=CN | 81 °C
82 | CCCCCCCCCCC(=O)OCC | -15 °C
83 | Cc1cc(C)c(NC(=O)CN(CC(=O)O)CC(=O)O)c(C)c1 | 218 to 221 °C
84 | CC1(C)OC(=O)C(=Cc2ccc(-c3ccc(Br)cc3)o2)C(=O)O1 | 182 °C
85 | O=C(CNc1ccc(NCC(=O)c2ccccc2)cc1)c1ccccc1 | 151 °C
86 | N#CC(c1ccccc1)N1CCCCC1 (configuration not stated) | 62 to 63 °C
87 | COc1cccc(CNC(=O)c2[nH]c3ccccc3c2CCO)c1 | 151 °C
88 | CCC(C)(O)C(=O)O (configuration not stated) | 74 °C
89 | CC(C)CC1=CC(=Cc2ccc(-c3ccc(Br)cc3)o2)C(=O)O1 | 107 to 108 °C
90 | COC(=O)C1Cc2ccccc2N1C(=O)OC(C)(C)C (configuration not stated) | 73 to 75 °C
91 | NC(=O)/C(=N\Nc1cccc(C(F)(F)F)c1)c1nc2ccccc2s1 | 190 °C
92 | Cc1nc2n(c(=O)c1CCN1CCC(c3noc4cc(F)ccc34)CC1)CCCC2 | 170 °C
93 | CC(=O)/C=C1\NC(=O)c2ccccc21 | 108 °C
94 | NC(=O)/C(=N\Nc1cccnc1)c1nc2ccccc2s1 | 238 °C
95 | CCOC(=O)C(C(C)=O)C(=O)c1ccc(C(=O)C(C(C)=O)C(=O)OCC)cc1 (configuration not stated) | 99 °C
96 | COC(=O)c1sccc1NN | 69 to 71 °C
97 | CNC(=O)COC1CCN(C(=O)OC(C)(C)C)CC1 | 95 °C
98 | Cc1c([N+](=O)[O-])c(C)c([N+](=O)[O-])c(C(C)(C)C)c1[N+](=O)[O-] | 110 °C
99 | O=C(O)c1ccc(Br)o1 | 190 °C
100 | COP1(=S)OCc2ccccc2O1 (configuration not stated) | 55 °C
101 | CCO[Si](CCCN)(OCC)OCC | -70 °C
102 | O=C(c1ccc(Br)cc1)c1noc(-c2ccc(Cl)cc2)c1S(=O)(=O)c1ccccc1 | 145 °C
103 | COC(=O)c1ccc[nH]1 | 73 to 75 °C
104 | CC(O)CNCCN (configuration not stated) | -50 °C

Row | SMILES | melting point
105 | CC(=O)OC1CCC2(C)C3CCC4=C(CCC4(C)C(C)OC(C)=O)C3CCC2(C)C1 (configuration not stated) | 117 to 119 °C
106 | O=C=Nc1ccc(CCl)cc1 | 33 °C
107 | CN(C)c1ccc(CNC(=O)c2cc([N+](=O)[O-])cc([N+](=O)[O-])c2)cc1 | 145 °C
108 | NNC(=O)c1ccc(O)cc1O | 241 °C
109 | CCOC(=O)c1c(NC(=S)NCc2ccccc2)sc2c1CCN(Cc1ccccc1)C2 | 135 to 138 °C
110 | N#Cc1c(Cl)cccc1[N+](=O)[O-] | 121 °C
111 | Nc1cccc(Oc2ccccn2)c1 | 76 to 78 °C
112 | CCC1CCC(C)CC1 (configuration not stated) | -80.8 °C
113 | O=C1OC(=O)C23Cc4ccccc4CC12Cc1ccccc1C3 (configuration not stated) | 267 to 270 °C
114 | Cc1cc(O)nc(N)n1 | 300 °C
115 | O=[N+]([O-])c1ccc(S(=O)(=O)O)c([N+](=O)[O-])c1 | 108 °C
116 | CCCCCCCCCCCCCCCCCCOO | 49.5 °C
117 | CCCC(O)C(O)(CC)C1CCCCC1 (configuration not stated) | 78 °C
118 | O=C(O)CCS | 18 °C
119 | CC(=O)c1ccc(F)c(Br)c1 | 56 °C
120 | CC1(C)CC(=O)C2=C(C1)Nc1ccc3ccccc3c1C2c1ccc(Cl)cc1Cl (configuration not stated) | 348 °C
121 | FC=C(F)F | -78 °C
122 | CN1CC2CC(C1)c1cccc(=O)n1C2 (configuration not stated) | 137 °C
123 | O=[N+]([O-])c1cccc([N+](=O)[O-])c1CO | 85 to 95 °C
124 | CCOC(=O)NC(N)=O | 196 °C
125 | COc1cc(OC)c(C)c(OC)c1 | 28 °C
126 | NNC(=O)c1cc(Cl)cc(Cl)c1 | 206 °C
127 | Clc1c(Cl)c(Cl)c2c(oc3c(Cl)c(Cl)c(Cl)c(Cl)c32)c1Cl | 258 °C
